Results as given in US12138140B2, “Wound covering for wound monitoring and therapeutic agent delivery” (UVic Industry Partnerships Inc., priority 2017, dated 2024).

What was measured:
[1] = dehydration test (weight loss over time); type: physicochemical; details: glycerol added to alginate
Procedure: One of the main advantages of using hydrogels as a substrate for wound dressings is their ability to retain moisture at the wound site. However, hydrogels may be prone to rapid dehydration, which can compromise the integrity of the dressing and ultimately affect its functionality. Rapid dehydration of the hydrogels can pose a challenge for the clinical application of gel-based dressings. The dehydration rate of the dermal patch was evaluated by measuring its weight loss at 37° C. and it was observed that the alginate patch was completely dehydrated in less than 10 hr (FIG. 26A). Influential parameters on dehydration rates including alginate concentration and dressing thickness were altered for these experiments. […]
The effect of Mepitel® on the dehydration rate of the hydrogel dressing was studied. Dressings with 2% w/v alginate were covered by Mepitel® and their weight were measured in 24 hr. […]
Dehydration and hydration tests: Square gel sheets (15 mm×15 mm) made of two different concentrations of alginate (2% and 6% w/v) and two different thicknesses (1.5 mm and 3 mm) were fabricated by crosslinking with agarose sheets containing CaCl2 similar to preparation of the patches. […] The weight was then recorded during definite time intervals for 3 hours and the degree of swelling was then obtained by determining the gained weight for each sample.

[2] = antibacterial efficiency of UV-sterilized gentamicin versus drug not treated with UV; type: cell-based; details: UV 365 nm, 200 mW/cm^2
Text: In a representative example, multifunctional dressings were made according to the embodiments described herein comprising an array of porous color-changing pH sensors (e.g., the sensing elements 14) and drug-eluting scaffolds (e.g., the therapeutic agent delivery elements 16), which were embedded within an alginate dressing (FIG. 16A). The array of porous sensors (each sensor was 12×12 mm in size) comprised three-dimensionally (3D)-printed color-changing alginate fibers that were loaded with mesoporous resin beads doped with a pH-responsive dye (FIGS. 16A-16G). Alginate is a naturally-derived polysaccharide that can be used as a dressing material for epidermal applications due to its biocompatibility, hemostatic properties, and non-adhesive characteristics that facilitate the removal of the dressing without trauma and pain (14-18). With reference to FIG. 6A and FIGS. 16B and 16C, to print the sensors, a microextruder 60 comprising two coaxial needles 62 and 64 (FIG. 16C and FIGS. 22A-22B) mounted on a 3D printer (e.g., a Prusa i3) was used. The porosity of the sensors was adjusted by changing the diameter of the fibers while keeping the spacing between fibers constant. Encapsulation of the beads within the hydrogel fibers prevented the beads from dispersing in the wound area while providing a biocompatible interface with the wound site. […]

P. aeruginosa = assay: semi quantitative bacteria inhibition assay of drug-eluting scaffolds on agar plate; type: cell-based, Pseudomonas aeruginosa; details: 3 mg/ml dosage
Procedure: To examine the antibacterial effectiveness of the drug-eluting scaffolds, a semi quantitative bacteria inhibition assay was performed using P. aeruginosa. […] Scaffolds with no drugs and filter paper impregnated with the same amount of drugs were used as negative and positive controls, respectively. Gentamicin is widely used as an effective antibiotic agent against a wide range of Gram-negative and Gram-positive bacteria, including P. aeruginosa (25-27). […] The observed white ring around the scaffold within the inhibited zone was suspected to be infected by the bacteria. Therefore, we collected swab samples from three different zones near the scaffold (point 1), in the white region (point 2), and at the edge of the ring (point 3), then plated the samples overnight on another agar plate. […] The formation of the white ring around the scaffold can be attributed to the interaction of the phosphate ions in the agar and calcium ions that were releasing from the calcium alginate scaffolds.
Bacteria viability loss assay: Drug-eluting scaffolds were embedded in alginate patches as described previously; patches were then placed on top of a Tryptic soy agar (TSA, Sigma-Aldrich) plate on which Pseudomonas aeruginosa bacteria were spread and the effect of the antimicrobial was investigated after incubation at 37° C. for 18 hr.

| Compound | reduction of dehydration rate [1] | impact of UV exposure on antibacterial efficiency of the drug [2] | effectiveness of topical delivery in the in vitro inhibition assay (P. aeruginosa) |
| --- | --- | --- | --- |
| OCC(O)CO [glycerol] | 30% |  |  |
| gentamicin sulfate |  | no impact | demonstrated the effectiveness |
